Test results reported in the supplement of paper PMC10307832.

How the values were obtained:
Experiment in all cases: relative viability (nuclei count vs DMSO), 5 days (fraction); higher = more cells survive
Pemetrexed + Vorinostat = compound: Nc1nc2[nH]cc(CCc3ccc(C(=O)N[C@@H](CCC(=O)O)C(=O)O)cc3)c2c(=O)[nH]1 [Pemetrexed] + O=C(CCCCCCC(=O)Nc1ccccc1)NO [Vorinostat] (partner 1 µM)
Summary of the method: (§1)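 Dosing by pin tool came one day after lung cancer cell lines were seeded in 1536-well plates, using either one drug or a fixed anchor-drug dose plus five library-drug doses (not always all listed) in √10 steps. After 5 days, nuclei were counted on 4× images. Relative viability is treated-well nuclei count divided by vehicle-well nuclei count, and values are medians of duplicate plates.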

Pemetrexed + Luminespib = compound: Nc1nc2[nH]cc(CCc3ccc(C(=O)N[C@@H](CCC(=O)O)C(=O)O)cc3)c2c(=O)[nH]1 [Pemetrexed] + CCNC(=O)c1noc(-c2cc(C(C)C)c(O)cc2O)c1-c1ccc(CN2CCOCC2)cc1 [Luminespib] (partner 0.01 µM)
Summary of the method: as §1

Idelalisib + Dasatinib = compound: CC[C@H](Nc1ncnc2[nH]cnc12)c1nc2cccc(F)c2c(=O)n1-c1ccccc1 [Idelalisib] + Cc1nc(Nc2ncc(C(=O)Nc3c(C)cccc3Cl)s2)cc(N2CCN(CCO)CC2)n1 [Dasatinib] (partner 0.075 µM)
Summary of the method: as §1

Idelalisib + Tozasertib = compound: CC[C@H](Nc1ncnc2[nH]cnc12)c1nc2cccc(F)c2c(=O)n1-c1ccccc1 [Idelalisib] + Cc1cc(Nc2cc(N3CCN(C)CC3)nc(Sc3ccc(NC(=O)C4CC4)cc3)n2)n[nH]1 [Tozasertib] (partner 0.1 µM)
Summary of the method: as §1

UMC-11
relative viability (Pemetrexed + Vorinostat; first compound 0.002 µM): 0.425 | relative viability (Pemetrexed + Vorinostat; first compound 0.006325 µM): 0.355 | relative viability (Pemetrexed + Vorinostat; first compound 0.02 µM): 0.44 | relative viability (Pemetrexed + Vorinostat; first compound 0.06325 µM): 0.347 | relative viability (Pemetrexed + Vorinostat; first compound 0.2 µM): 0.35 | relative viability (Pemetrexed + Luminespib; first compound 0.002 µM): 0.989 | relative viability (Pemetrexed + Luminespib; first compound 0.006325 µM): 0.972 | relative viability (Pemetrexed + Luminespib; first compound 0.02 µM): 1.03 | relative viability (Pemetrexed + Luminespib; first compound 0.06325 µM): 1.09 | relative viability (Pemetrexed + Luminespib; first compound 0.2 µM): 0.923 | relative viability (Idelalisib + Dasatinib; first compound 0.04 µM): 0.349 | relative viability (Idelalisib + Dasatinib; first compound 0.1265 µM): 0.492 | relative viability (Idelalisib + Dasatinib; first compound 0.4 µM): 0.391 | relative viability (Idelalisib + Dasatinib; first compound 1.265 µM): 0.564 | relative viability (Idelalisib + Dasatinib; first compound 4 µM): 0.474 | relative viability (Idelalisib + Tozasertib; first compound 0.04 µM): 0.218 | relative viability (Idelalisib + Tozasertib; first compound 0.1265 µM): 0.192 | relative viability (Idelalisib + Tozasertib; first compound 0.4 µM): 0.203 | relative viability (Idelalisib + Tozasertib; first compound 1.265 µM): 0.188 | relative viability (Idelalisib + Tozasertib; first compound 4 µM): 0.192
